Reference: ChEMBL document CHEMBL5518242, “Discovery and Optimization of Novel Nonbile Acid FXR Agonists as Preclinical Candidates for the Treatment of Inflammatory Bowel Disease” (J Med Chem, 2024)

Settings: human, caco-2
Description: Permeability in human Caco-2 cells

In the case of `Cn1cc(C(=O)O)c2ccc(N3CCC(OCc4c(-c5c(Cl)cccc5Cl)noc4C4CC4)CC3)cc21` [TERN-101], the permeability was “Permeable”.
